Several values for one entry are separate records, joined by “and”; a condition that tells them apart may be missing. Equal entries are not always repeated.
Test system: NCI-H23 complex spheroids with HUVEC/MSC, viability
Test: Anticancer human tumor NCI-H23 cell line growth inhibition [RAS];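 further: spheroids exposed to compound for 7 days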;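 on viability, T/C: 100% = DMSO vehicle control viability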
Details: for viability, T/C: stronger effect = lower value
Source text: RAS pathway inhibitors in Combinations in Complex Spheroids
A high-throughput screen of multi-cell type tumor spheroids was designed to identify active combinations of RAS pathway inhibitors and targeted small molecules. Complex spheroids include a stromal component modeled by human endothelial cells (HUVEC) and fibroblasts modeled by human mesenchymal stem cells (MSCs). The concentration ranges selected for each drug and investigational agent were based upon clinically achievable concentrations if the clinical Cmax of the agent was known.
Compounds. The drugs and investigational agents: abemaciclib (NSC768073), cobimetinib (NSC768068), divarasib (GDC6063, NSC841802), docetaxel (NSC628503), GDC-1971 (RLY-1971, NSC841576), gemcitabine (NSC613327), inavolisib (NSC800729), ipatasertib (NSC767898), KB-0742 (NSC834161), MRTX-1133 (NSC836407), osimertinib (NSC779217), RMC-4630 (NSC839698), RMC-6236 (NSC851965), RMC-6291 (NSC852671), Ro-3306 (NSC812927), sapanisertib (NSC764658), SN-38 (NSC673596), staurosporine (NSC755774), SY5609 (NSC837396), and tovorafenib (DAY101, NSC766906), were obtained from the National Cancer Institute (NCI) Developmental Therapeutics Program Chemical Repository. The FDA-approved anticancer drug set is available from the NCI Developmental Therapeutics Program. […] The stock solutions were prepared in dimethyl sulfoxide (DMSO, Sigma-Aldrich, St. Louis, MO, cat. D2650) at 800-fold the tested concentration and stored at -70 degrees C prior to their use. All drugs and investigational agents were tested over a range starting from a high concentration at or near the clinical Cmax and decreasing in half-log increments. If the clinical Cmax for an agent had not been determined, the highest concentration tested was 10 microM.
Cell Culture. All cells were maintained in an incubator at 37 degrees C and 5% CO2 with 95% humidity. The PDC lines were cultured according to standard operating procedures established by the NCI PDMR. All PDCs were thawed and cultured in Matrigel-coated flasks prepared with a working solution of 1X Ham's F-12 nutrient mix, without supplementation (Invitrogen, Waltham, MA, cat. 11765054), 100 U/mL penicillin-streptomycin (Invitrogen, cat. 15140122), and 2.5% Matrigel (Corning Inc., Corning, NY, cat. 354248) for the first three passages. The 362531-283-R-J2-PDC and 782815-120-R-J1-PDC lines were cultured in 6C/Colon 1B media, which includes advanced DMEM/F-12 (Thermo Fisher Scientific, cat. 12634028), 10 mM HEPES (Thermo Fisher Scientific, cat. 15630080), 1X GlutaMAX supplement (Thermo Fisher Scientific, cat. 35050061), 0.1 mg/mL primocin (InvivoGen, San Diego, CA, cat. ant-pm-2), 10% defined fetal bovine serum, heat inactivated (HyClone Laboratories Inc., Logan, UT, cat. SH30070.03HI), 50% L-WRN conditioned media (ATCC, cat. CRL-3276), 1.25 mM N-Acetyl-L-cysteine (Sigma-Aldrich, cat. A9165), 10 mM nicotinamide (Sigma-Aldrich, cat. N0636), 1X B-27 supplement (Thermo Fisher Scientific, cat. 17504044), 1X N-2 supplement (Thermo Fisher Scientific, cat. 17502048), 50 ng/mL human EGF (Thermo Fisher Scientific, cat. PHG0311), and 10 microM Y-27632 dihydrochloride (Tocris Bioscience, cat. 1254). The K12877-001-R-J1-PDC line was cultured in 6I media, which includes all 6C/Colon 1B media plus 10 ng/mL human FGF-10 (PeproTech, cat. 100-26), 1 ng/mL human FGF-2 (PeproTech, cat. 100-18B), 1 µM prostaglandin E2 (Tocris Bioscience, cat. 2296), […] hydrocortisone (Sigma-Aldrich, cat. H4001), and […] bovine insulin (Sigma-Aldrich, cat. I6634). The K86415-001-R-J1-PDC line was cultured in 6D media, which includes all 6C/Colon 1B media components minus the L-WRN conditioned media. The 485176-168-R4-J1-PDC was cultured in PANC media, which includes all 6C/Colon 1B media plus 100 ng/mL human FGF-10 (PeproTech, cat. 100-26), 500 nM SB-431542 (Selleckchem, cat. S1067), and 10 nM gastrin (Tocris Bioscience, cat. 3006). […]

[1] = compound alone, run of 07/09/2024

Compound	viability, T/C (compound 0.00316 µM)	viability, T/C (compound 0.01 µM)	viability, T/C (compound 0.0316 µM)	viability, T/C (compound 0.1 µM)	viability, T/C (compound 0.316 µM)	viability, T/C (compound 1 µM)	IC50 (compound alone, run of 07/15/2024)	IC50 (curve of compound)	viability, T/C (compound 0.000316 µM)	viability, T/C (compound 0.000949 µM)	viability, T/C (compound 0.003 µM)	viability, T/C (compound 0.00949 µM)	viability, T/C (compound 0.03 µM)	viability, T/C (compound 0.0949 µM)	viability, T/C (compound 0.3 µM)	IC50 [1]
C=CC(=O)N1CCN(c2nc(OCC3CCCN3C)nc3c(F)c(-c4nc(N)cc(C)c4C(F)(F)F)c(Cl)cc23)C(C)C1 (stereo not drawn)	61.5% [middle of 12 runs]	48.4% [middle of 12 runs]	39.9% [middle of 12 runs]	38.5% [middle of 12 runs]	38.3% [middle of 12 runs]	37.2% [middle of 12 runs]	9 nM [middle of 8 runs]	8.5 nM and < 3.16 nM and 7.59 nM	–	–	–	–	–	–	–	–
C=CC(=O)Nc1cc(Nc2nccc(-c3cn(C)c4ccccc34)n2)c(OC)cc1N(C)CCN(C)C	109% (2×) and 103% and 107%	105% [middle of 4 runs]	102% [middle of 4 runs]	–	107% [middle of 4 runs]	–	–	> 1000 nM	–	–	–	–	–	–	–	–
CC(C)n1nc(-c2ccc3oc(N)nc3c2)c2c(N)ncnc21	88.6% [middle of 4 runs]	83% [middle of 4 runs]	61.7% [middle of 4 runs]	53.8% [middle of 4 runs]	–	–	–	83.1 nM and > 100 nM and 67 nM	102% and 105% (2×) and 106%	–	–	–	–	–	–	–
CC1(C)CCC(Nc2ncc(C(F)(F)F)c(-c3c[nH]c4c(P(C)(C)=O)c(C#N)ccc34)n2)CN1 (stereo not drawn)	–	–	–	–	–	–	–	–	–	86.7% [middle of 4 runs]	73.2% [middle of 4 runs]	51.7% [middle of 4 runs]	49.3% [middle of 4 runs]	45.9% [middle of 4 runs]	48% [middle of 4 runs]	–
CCN1CCN(Cc2ccc(Nc3ncc(F)c(-c4cc(F)c5nc(C)n(C(C)C)c5c4)n3)nc2)CC1	100% and 104% (2×) and 103%	92% [middle of 4 runs]	78% [middle of 4 runs]	70.2% [middle of 4 runs]	58% [middle of 4 runs]	–	–	> 1000 nM and 434 nM and 646 nM	–	–	–	–	–	–	–	–
CCc1c2c(nc3ccc(O)cc13)-c1cc3c(c(=O)n1C2)COC(=O)[C@]3(O)CC	–	–	–	–	–	–	–	4.43 nM [middle of 4 runs]	–	91.1% [middle of 4 runs]	59.1% [middle of 4 runs]	32.2% [middle of 4 runs]	14.4% [middle of 4 runs]	8.18% [middle of 4 runs]	6.26% [middle of 4 runs]	–
CCn1c(-c2cc(N3CCN(C)CC3)cnc2C(C)OC)c2c3cc(ccc31)-c1csc(n1)CC(NC(=O)C1CC1C)C(=O)N1CCCC(N1)C(=O)OCC(C)(C)C2 (stereo not drawn)	–	–	–	–	–	–	–	–	–	45.5% [middle of 8 runs]	36.2% [middle of 8 runs]	32.6% [middle of 8 runs]	29.9% [middle of 8 runs]	22.1% [middle of 8 runs]	19.5% [middle of 8 runs]	< 0.949 nM
CCn1c(-c2cccnc2C(C)OC)c2c3cc(ccc31)N1CCOC(CC(NC(=O)C(C(C)C)N(C)C(=O)C3(F)CCN(C(=O)C#CC(C)(C)N(C)C)CC3)C(=O)N3CCCC(N3)C(=O)OCC(C)(C)C2)C1 (stereo not drawn)	–	–	–	–	–	–	–	–	–	32.4% [middle of 8 runs]	–	30.6% [middle of 8 runs]	31.6% [middle of 8 runs]	30.8% [middle of 8 runs]	28.1% [middle of 8 runs]	< 0.949 nM and 5.92 nM
Nc1ccn(C2OC(CO)C(O)C2(F)F)c(=O)n1 (stereo not drawn)	77.2% [middle of 4 runs]	15.3% [middle of 4 runs]	8.37% [middle of 4 runs]	7.36% [middle of 4 runs]	7.15% [middle of 4 runs]	10.5% [middle of 4 runs]	–	5.35 nM [middle of 4 runs]	–	–	–	–	–	–	–	–
